The text below walks through data of PubChem BioAssay AID330 (DTP/NCI, 2004).

“And” between values parts separate entries of the source, which are not always exact repeats. Identical values can stand only once. Inconclusive results and toxic doses are left out.

The test deals with P388 leukemia ip, CD2F1 mice, survival T/C. Briefly: NCI In Vivo Anticancer Drug Screen. Data for tumor model P388 Leukemia (intraperitoneal) in CD2F1 (CDF1) mice. The conditions noted are these: endpoint: median survival time, higher = longer survival. Summed up: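 Mice carrying the transplanted tumor received test compound or vehicle. Survival was recorded in each group, and the value is the treated-group measurement divided by that of the vehicle-treated control group.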

The mark [1] stands for this setting: dose: 50.0 mg/kg/injection, schedule: Q01DX005 (ip), vehicle: Klucel (hydroxypropylcellulose) (HPC).
Where [2] appears, read: dose: 100.0 mg/kg/injection, schedule: Q01DX005 (ip), vehicle: Klucel (hydroxypropylcellulose) (HPC).
The mark [3] stands for this setting: dose: 200.0 mg/kg/injection, schedule: Q01DX005 (ip), vehicle: Klucel (hydroxypropylcellulose) (HPC).
Where [4] appears, read: dose: 60.0 mg/kg/injection, schedule: Q01DX005 (ip), vehicle: saline with Tween-80.
Setting [5] is: dose: 120.0 mg/kg/injection, schedule: Q01DX005 (ip), vehicle: saline with Tween-80.
[6] abbreviates: dose: 240.0 mg/kg/injection, schedule: Q01DX005 (ip), vehicle: saline with Tween-80.
[7] abbreviates: dose: 50.0 mg/kg/injection, schedule: Q04DX003 (ip), vehicle: saline with Tween-80.
Setting [8] is: dose: 100.0 mg/kg/injection, schedule: Q04DX003 (ip), vehicle: saline with Tween-80.
Setting [9] is: dose: 50.0 mg/kg/injection, schedule: Q01DX009 (ip), vehicle: saline.
The mark [10] stands for this setting: dose: 100.0 mg/kg/injection, schedule: Q01DX009 (ip), vehicle: saline.
The mark [11] stands for this setting: dose: 50.0 mg/kg/injection, schedule: Q01DX005 (ip), vehicle: saline with Tween-80.
The mark [12] stands for this setting: dose: 60.0 mg/kg/injection, schedule: Q01DX005 (ip), vehicle: saline.
[13] abbreviates: dose: 50.0 mg/kg/injection, schedule: Q01DX009 (ip), vehicle: Klucel (hydroxypropylcellulose) (HPC).
Setting [14] is: dose: 50.0 mg/kg/injection, schedule: Q01DX009 (ip), vehicle: saline with Tween-80.
The mark [15] stands for this setting: dose: 200.0 mg/kg/injection, schedule: Q04DX003 (ip), vehicle: saline with Tween-80.
Where [16] appears, read: dose: 15.0 mg/kg/injection, schedule: Q01DX005 (ip), vehicle: saline with Tween-80.
[17] abbreviates: dose: 30.0 mg/kg/injection, schedule: Q01DX005 (ip), vehicle: saline with Tween-80.

As to `CN1C(=O)/C(=C2\SC(=O)N(CN3CCOCC3)C2=O)c2ccccc21`, the T/C is, setting by setting: under setting [1], 106 % of control; under setting [2], 99 % of control; under setting [3], 104 % of control.
With `C[Si](C)(C)C#CC[Si](C)(C)C`, the T/C is, setting by setting: under setting [4], 97 % of control; under setting [5], 100 % of control; under setting [6], 106 % of control.
As for `COc1ccc(OC)c(C2N(Cc3ccc(N(C)C)cc3)CCCN2Cc2ccc(N(C)C)cc2)c1`, the T/C is 91 % of control under setting [7] and 91 % of control under setting [8].
Take `Clc1cnc(/N=C/c2ccc(/C=N/c3ncc(Cl)cc3Cl)cc2)c(Cl)c1`: the T/C was 100 % of control under setting [9]; 101 % of control under setting [10]; 102 % of control (dose: 200.0 mg/kg/injection, schedule: Q01DX009 (ip), vehicle: saline).
Regarding `CN1CCN(N=Nc2ccccc2Cl)CC1`, the T/C reads like this: (dose: 12.5 mg/kg/injection, schedule: Q01DX009 (ip), vehicle: saline) 99 % of control; (dose: 25.0 mg/kg/injection, schedule: Q01DX009 (ip), vehicle: saline) 111 % of control; under setting [9], 103 % of control and 98 % of control.
Consider `O=C1/C(=C/c2ccc(O)cc2)CCC/C1=C\c1ccc(O)cc1`, for which the T/C reads like this: under setting [4], 97 % of control; under setting [5], 93 % of control; under setting [6], 92 % of control.
For the molecule `c1ccc(NN=Nc2ncnc3nc[nH]c23)cc1`, the T/C was 106 % of control (dose: 12.5 mg/kg/injection, schedule: Q01DX005 (ip), vehicle: saline with Tween-80); 111 % of control (dose: 25.0 mg/kg/injection, schedule: Q01DX005 (ip), vehicle: saline with Tween-80); 102 % of control and 115 % of control under setting [11].
For the molecule `CC(C)=Cc1cc(-c2cc(C=C(C)C)nc(N)n2)nc(N)n1`, the T/C is, setting by setting: under setting [12], 97 % of control; (dose: 120.0 mg/kg/injection, schedule: Q01DX005 (ip), vehicle: saline) 94 % of control.
In the case of `O=C1C=C[C@@H](COC(c2ccccc2)(c2ccccc2)c2ccccc2)O1`, the T/C (dose: 100.0 mg/kg/injection, schedule: Q04DX002 (ip), vehicle: saline with Tween-80) was 92 % of control; the T/C (dose: 200.0 mg/kg/injection, schedule: Q04DX002 (ip), vehicle: saline with Tween-80) was 86 % of control; the T/C (dose: 400.0 mg/kg/injection, schedule: Q04DX002 (ip), vehicle: saline with Tween-80) was 89 % of control.
As for `Cc1ccc2nc(N/N=C/c3cccnc3)sc2c1`, the T/C reads like this: under setting [13], 105 % of control; (dose: 100.0 mg/kg/injection, schedule: Q01DX009 (ip), vehicle: Klucel (hydroxypropylcellulose) (HPC)) 100 % of control; (dose: 200.0 mg/kg/injection, schedule: Q01DX009 (ip), vehicle: Klucel (hydroxypropylcellulose) (HPC)) 96 % of control.
As to `CCN(CC)CCOc1ccccc1/C=C/c1noc2ccccc12`, the T/C by setting is: (dose: 15.0 mg/kg/injection, schedule: Q01DX005 (ip), vehicle: saline) 94 % of control; (dose: 30.0 mg/kg/injection, schedule: Q01DX005 (ip), vehicle: saline) 91 % of control; under setting [12], 98 % of control.
On to `CC(=O)OC/C(C)=N\NS(=O)(=O)c1cc(Cl)c(Cl)cc1Cl`, for which the T/C under setting [9] is 99 % of control and the T/C under setting [10] was 86 % of control.
Regarding `Cc1cccc(C)c1-n1c(C)nc2c(c(C)c(C)n2-c2ccccc2)c1=N`, the T/C under setting [1] was 101 % of control and the T/C under setting [2] is 94 % of control.
Regarding `COc1cc(OC)c2c(c1)C(C1c3cc(C)cc(O)c3C(=O)c3c(OC)cc(OC)cc31)c1cc(C)cc(O)c1C2=O` (stereo not given), the T/C by setting is: (dose: 12.5 mg/kg/injection, schedule: Q01DX005 (ip), vehicle: Klucel (hydroxypropylcellulose) (HPC)) 105 % of control; (dose: 25.0 mg/kg/injection, schedule: Q01DX005 (ip), vehicle: Klucel (hydroxypropylcellulose) (HPC)) 100 % of control; under setting [1], 92 % of control; under setting [2], 92 % of control; under setting [3], 96 % of control.
As to `CC1=CC(Cc2ccccc2)N(C)CC1C` (stereo not given), the T/C under setting [4] was 97 % of control and the T/C under setting [5] was 91 % of control.
Take `O=C1NC(CCCl)C(=O)NC1CCCl` (stereo not given): the T/C reads like this: under setting [11], 96 % of control; under setting [14], 110 % of control; under setting [7], 95 % of control; (dose: 100.0 mg/kg/injection, schedule: Q01DX005 (ip), vehicle: saline with Tween-80) 100 % of control; (dose: 100.0 mg/kg/injection, schedule: Q01DX009 (ip), vehicle: saline with Tween-80) 95 % of control; under setting [8], 100 % of control. The T/C reads like this: (dose: 200.0 mg/kg/injection, schedule: Q01DX005 (ip), vehicle: saline with Tween-80) 100 % of control; (dose: 200.0 mg/kg/injection, schedule: Q01DX009 (ip), vehicle: saline with Tween-80) 110 % of control; under setting [15], 100 % of control.
Regarding `Cc1ccc(S(=O)(=O)OCCN(CCOS(=O)(=O)c2ccc(C)cc2)c2ccc(F)cc2)cc1`, the T/C was 104 % of control (dose: 0.63 mg/kg/injection, schedule: Q01DX009 (ip), vehicle: other); 118 % of control (dose: 1.25 mg/kg/injection, schedule: Q01DX009 (ip), vehicle: other); 150 % of control (dose: 5.0 mg/kg/injection, schedule: Q01DX009 (ip), vehicle: other).
Regarding `Clc1nn2cnnc2c2ncccc12`, the T/C by setting is: (dose: 12.5 mg/kg/injection, schedule: Q01DX009 (ip), vehicle: Klucel (hydroxypropylcellulose) (HPC)) 91 % of control; (dose: 25.0 mg/kg/injection, schedule: Q01DX009 (ip), vehicle: Klucel (hydroxypropylcellulose) (HPC)) 96 % of control; under setting [13], 92 % of control and 97 % of control.
In the case of `CC1CCC2(CC1)CCN(CCCN(C)C)CC2`, the T/C is 99 % of control under setting [9] and 103 % of control under setting [10].
Consider `BrC1CC2(OCCO2)C(Br)CC12OCCO2` (stereo not given), for which the T/C was 99 % of control (dose: 25.0 mg/kg/injection, schedule: Q04DX003 (ip), vehicle: saline); 100 % of control (dose: 50.0 mg/kg/injection, schedule: Q04DX003 (ip), vehicle: saline); 118 % of control (dose: 100.0 mg/kg/injection, schedule: Q04DX003 (ip), vehicle: saline); 103 % of control (dose: 200.0 mg/kg/injection, schedule: Q04DX003 (ip), vehicle: saline); 103 % of control (dose: 400.0 mg/kg/injection, schedule: Q04DX003 (ip), vehicle: saline).
As for `COc1ccc(OCCC(=O)O)cc1`, the T/C (dose: 1.56 mg/kg/injection, schedule: Q01DX009 (ip), vehicle: saline with Tween-80) was 109 % of control; the T/C (dose: 3.12 mg/kg/injection, schedule: Q01DX009 (ip), vehicle: saline with Tween-80) is 112 % of control; the T/C (dose: 6.25 mg/kg/injection, schedule: Q01DX009 (ip), vehicle: saline with Tween-80) was 112 % of control and 86 % of control; the T/C (dose: 25.0 mg/kg/injection, schedule: Q01DX009 (ip), vehicle: saline with Tween-80) is 105 % of control; the T/C under setting [14] is 102 % of control.
On to `CC(C)(C)NCc1cc(Nc2ccnc3cc(Cl)ccc23)cc(-c2ccc(Cl)cc2)c1O`, for which the T/C under setting [16] is 100 % of control; the T/C under setting [17] was 100 % of control; the T/C under setting [4] is 95 % of control and 98 % of control; the T/C under setting [5] was 105 % of control; the T/C under setting [6] is 97 % of control.
Take `C=C1C(C)C2C(Cc3ccccc3)NC(=O)C23OC(=O)/C=C\CC(=O)CCC(C)C/C=C/C3C1O` (stereo not given): the T/C is, setting by setting: (dose: 5.0 mg/kg/injection, schedule: Q01DX009 (ip), vehicle: Klucel (hydroxypropylcellulose) (HPC)) 110 % of control; (dose: 10.0 mg/kg/injection, schedule: Q01DX009 (ip), vehicle: Klucel (hydroxypropylcellulose) (HPC)) 118 % of control.
On to `CCCN(CCC)CC(=O)NC1c2ccccc2Oc2ccccc21`, for which the T/C reads like this: under setting [1], 101 % of control; under setting [2], 101 % of control; under setting [3], 90 % of control.
`O=C(Nc1cccc2ccccc12)[C@H]1C[C@H]2C=C[C@@H]1C2`: the T/C is 95 % of control under setting [8]; 90 % of control under setting [15]; 113 % of control (dose: 400.0 mg/kg/injection, schedule: Q04DX003 (ip), vehicle: saline with Tween-80).
`O=C1C2=C(OCO2)C(=O)C2=C1OCO2`: the T/C is 104 % of control under setting [16], 101 % of control under setting [17] and 106 % of control under setting [4].
